Source: ChEMBL document CHEMBL1201862, “PubChem BioAssay data set” (2004)
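In this assay, cells in 96-well plates receive the compound at five concentrations for 48 hours. Endpoints are linearly interpolated between the surrounding concentrations. GI50: concentration for 50% inhibition of growth.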 Active and inactive are the calls of the source. Rule as the data show it: active = GI50 up to about 1.1 µM and inactive = higher.

Assays:
Assay in all cases: DTP human tumour cell line panel, 48 h
OVCAR-5 = system: OVCAR-5
SK-OV-3 = system: SK-OV-3
A549 = system: A549
DMS-114 = system: DMS-114
SW-620 = system: SW-620
SF-539 = system: SF-539
CAKI-1 = system: CAKI-1
LXFL 529 = system: LXFL 529
HCT-116 = system: HCT-116
LOX IMVI = system: LOX IMVI
OVCAR-4 = system: OVCAR-4
SF-295 = system: SF-295
SK-MEL-28 = system: SK-MEL-28
K562 = system: K562
TK-10 = system: TK-10
OVCAR-3 = system: OVCAR-3
PC-3 = system: PC-3
MDA-MB-435 = system: MDA-MB-435
Hs-578T = system: Hs-578T
DU-145 = system: DU-145

Row | SMILES | GI50 (OVCAR-5) | GI50 (SK-OV-3) | GI50 (A549) | GI50 (DMS-114) | GI50 (SW-620) | GI50 (SF-539) | GI50 (CAKI-1) | GI50 (LXFL 529) | GI50 (HCT-116) | GI50 (LOX IMVI) | GI50 (OVCAR-4) | GI50 (SF-295) | GI50 (SK-MEL-28) | GI50 (K562) | GI50 (TK-10) | GI50 (OVCAR-3) | GI50 (PC-3) | GI50 (MDA-MB-435) | GI50 (Hs-578T) | GI50 (DU-145)
1 | CNC(=O)OCc1nc(SSc2nc(COC(=O)NC)c(COC(=O)NC)n2C)n(C)c1COC(=O)NC | > 100 µM (inactive) | > 100 µM (inactive) | > 100 µM (inactive) | > 100 µM (inactive) | > 100 µM (inactive) | > 100 µM (inactive) | > 100 µM (inactive) | > 100 µM (inactive) | > 100 µM (inactive) | > 100 µM (inactive) | > 100 µM (inactive) | > 100 µM (inactive) | > 100 µM (inactive) | > 100 µM (inactive) | > 100 µM (inactive) | > 100 µM (inactive) |  |  |  | 
2 | COC(=O)C1=C(C(=O)OC)C2(C3C(SC)=CC(C)(C)CC3S1)N(Cc1ccccc1)CCN2Cc1ccccc1 (centres undefined) | > 100 µM (inactive) | > 100 µM (inactive) | > 100 µM (inactive) | > 100 µM (inactive) | > 100 µM (inactive) | > 100 µM (inactive) | > 100 µM (inactive) | > 100 µM (inactive) | > 100 µM (inactive) | > 100 µM (inactive) | > 100 µM (inactive) | > 100 µM (inactive) | > 100 µM (inactive) | 62.7 µM (inactive) | > 100 µM (inactive) | > 100 µM (inactive) |  |  |  | 
3 | CCCCCCCCCCCC(=O)C1=C(O)CC(O)CC1=O (centres undefined) | 68.7 µM (inactive) | > 100 µM (inactive) | 59.4 µM (inactive) | 64.3 µM (inactive) | > 100 µM (inactive) | > 100 µM (inactive) | > 100 µM (inactive) | 83.6 µM (inactive) | > 100 µM (inactive) | 54.6 µM (inactive) | > 100 µM (inactive) | 84.1 µM (inactive) | > 100 µM (inactive) | 42.2 µM (inactive) | > 100 µM (inactive) | 82.6 µM (inactive) |  |  |  | 
4 | C[N+](C)(C)CCC(=O)N1C/C(=C\c2ccccc2)C(=O)/C(=C/c2ccccc2)C1 | 16.9 µM (inactive) | 23.7 µM (inactive) | 14.7 µM (inactive) | 5.98 µM (inactive) | 0.904 µM (active) | 5.06 µM (inactive) | 6.49 µM (inactive) | 3.78 µM (inactive) | 1.53 µM (inactive) | 1.7 µM (inactive) | 3.37 µM (inactive) | 3.78 µM (inactive) | 8.05 µM (inactive) | 1.21 µM (inactive) | 14.4 µM (inactive) | 3.82 µM (inactive) | 2.49 µM (inactive) | 2.29 µM (inactive) | 4.31 µM (inactive) | 16.8 µM (inactive)
5 | COc1ccc(-c2cc(=O)c3ccc(O)cc3o2)c(OC)c1OC | > 10 µM (inactive) | 90.6 µM (inactive) | 55.7 µM (inactive) | 33.2 µM (inactive) | 48 µM (inactive) | 46 µM (inactive) | 89.3 µM (inactive) | 66.8 µM (inactive) | 51.9 µM (inactive) | 60.7 µM (inactive) | 88.7 µM (inactive) | 46.5 µM (inactive) | 64.3 µM (inactive) | 29.6 µM (inactive) | 78.3 µM (inactive) | 41.9 µM (inactive) |  |  |  | 
